Experimental data: article PMC11883000, “Structure-function relationship of ASH1L and histone H3K36 and H3K4 methylation” (Nature Communications, 2025)
Like-named read-outs stand apart in the source and are kept apart here. Values belong to the molecule of their own block, whether it stands above or below them.

Experiments:
[1] = system: H3K4me3-NCP; assay: Liquid HMT assay of GST-ASH1LSET-BD-PHD on H3K4me3-nucleosomes; format: biochemical; settings: D2595K mutant compared to WT ASH1LSET-BD-PHD on H3K4me3-NCP; presence or absence of MRG15; 3H-SAM, 60 min at 30 °C, pH 8
Experimental: Fig. 6 Binding of ASH1LPHD to H3K4me3 inhibits enzymatic activity of ASH1L. a Overlay of ^1H,^15N HSQC spectra of ASH1LBD in the absence (black) or presence of the indicated molar ratios of ASH1LSET. b Overlay of ^1H,^15N HSQC spectra of ASH1LPHD in the absence (black) or presence (blue) of ASH1LSET. c Liquid histone methyltransferase (HMT) assays of GST-ASH1LSET-BD-PHD-BAH on recombinant nucleosomes carrying H3K4me3 or unmodified NCP. GST-ASH1LSET-BD-PHD-BAH was pre-incubated with substrate and MRG15 (or BSA) prior addition of ^3H S-adenosyl methionine. GST, control. […] Live cells were counted over a 6-day time course. […]
Recombinant ASH1L (WT and mutant) constructs, tagged at the N-terminus with GST and at the C-terminus with 6XHis, were generated and purified using Sepharose beads and Ni-NTA beads. […] Methyltransferase activity of the proteins was measured with 0.5 μCi of ^3H labeled S-adenosyl methionine (18 Ci/mmol; PerkinElmer Life Sciences). […] The reactions were captured on P81 filter paper, the free ^3H-labeled SAM was washed away, and the paper was analyzed by Liquid Scintillation.

[2] = target: T1, ASH1LPHD (Homo sapiens, UniProt Q9NR48); assay: Tryptophan fluorescence binding, WT ASH1LPHD
T1 construct: ASH1LPHD (aa 2579-2629); GST (N, cleaved yes); made in house; host or cells: E. coli BL21 or Rosetta2 (DE3) pLysS
From the text: Human ASH1L constructs ASH1LPHD (aa 2579-2629), ASH1LBD (aa 2430-2564) and ASH1LPHD-BAH (aa 2579- 2794 and 2579-2834), ASH1LBD-PHD (aa 2430-2629) were cloned into pDEST15 vector with a TEV or Precission cleavage site. ASH1LBD-PHD-BAH (aa 2436-2833), ASH1LSET-BD-PHD (aa 2074-2629) and ASH1LSET-BD-PHD-BAH (aa 2069-2834) were in pGEX6P-1 and pMOCR vectors. Mutants of Ash1LPHD and Ash1LBD were generated following Quikchange mutagenesis protocols. Each construct was expressed in BL21 or Rosetta2 (DE3) pLysS cells in LB or minimal media supplemented with ^15NH4Cl (and ZnCl2 for PHD finger-containing constructs). Cultures were induced with 0.5 mM IPTG and grown for 18 h at 16 °C. After harvesting, the GST-tagged proteins were purified using glutathione agarose (Thermo Scientific) in 20 mM Tris pH 7.5, 150-500 mM NaCl, 5 mM MgCl2 and 2 mM DTT. For experiments requiring GST-tagged constructs, the proteins were eluted in a buffer containing 20 mM Tris pH 7.5, 150-500 mM NaCl, 5 mM MgCl2, 50 mM reduced glutathione and 2 mM DTT. For crystallography and biochemical assays, the GST tag was cleaved overnight at 4 °C with TEV or PreScission protease, and proteins were further purified by size exclusion chromatography (SEC). Protein fractions were checked for purity by SDS-PAGE and concentrated in a concentrator (Millipore).
(§1) Fluorescence spectra were collected at 25 °C on a Fluoromax-3 and Fluoromax-4 plus C spectrofluorometers (HORIBA). […] Emission spectra were recorded between 320 and 360 nm with a 0.5 nm step size and a 0.5 s integration time. The Kd values were determined using a nonlinear least-squares analysis and the equation:3 ΔI=ΔImax((L+P+Kd)−L+P+Kd^2−4[P][L])/2[P] where [L] is concentration of the peptide, [P] is concentration of the protein, ΔI is the observed change of signal intensity, and ΔImax is the difference in signal intensity of the free and bound states of the protein. The Kd values were averaged over three independent experiments with error calculated as the standard deviation between the runs.

[3] = target: T2, ASH1LPHD D2584A (Homo sapiens, UniProt Q9NR48, D2584A); assay: Tryptophan fluorescence binding, ASH1LPHD D2584A; settings: 25 °C, pH 7.5, mean ± S.D., three independent experiments
T2 construct: ASH1LPHD (aa 2579-2629); GST (N, cleaved yes); made in house; host or cells: E. coli BL21 or Rosetta2 (DE3) pLysS
From the text: (§2) Human ASH1L constructs ASH1LPHD (aa 2579-2629), ASH1LBD (aa 2430-2564) and ASH1LPHD-BAH (aa 2579- 2794 and 2579-2834), ASH1LBD-PHD (aa 2430-2629) were cloned into pDEST15 vector with a TEV or Precission cleavage site. ASH1LBD-PHD-BAH (aa 2436-2833), ASH1LSET-BD-PHD (aa 2074-2629) and ASH1LSET-BD-PHD-BAH (aa 2069-2834) were in pGEX6P-1 and pMOCR vectors. Mutants of Ash1LPHD and Ash1LBD were generated following Quikchange mutagenesis protocols. Each construct was expressed in BL21 or Rosetta2 (DE3) pLysS cells in LB or minimal media supplemented with ^15NH4Cl (and ZnCl2 for PHD finger-containing constructs). Cultures were induced with 0.5 mM IPTG and grown for 18 h at 16 °C. […]
as §1

[4] = target: T3, ASH1LPHD D2595A (Homo sapiens, UniProt Q9NR48, D2595A); assay: Tryptophan fluorescence binding, ASH1LPHD D2595A; settings: 25 °C, pH 7.5, mean ± S.D., three independent experiments
T3 construct: ASH1LPHD (aa 2579-2629); GST (N, cleaved yes); made in house; host or cells: E. coli BL21 or Rosetta2 (DE3) pLysS
From the text: as §2, §1

[5] = target: T4, ASH1LPHD Q2601K (Homo sapiens, UniProt Q9NR48, Q2601K); assay: Tryptophan fluorescence binding, ASH1LPHD Q2601K; settings: 25 °C, pH 7.5, mean ± S.D., three independent experiments
T4 construct: ASH1LPHD (aa 2579-2629); GST (N, cleaved yes); made in house; host or cells: E. coli BL21 or Rosetta2 (DE3) pLysS
From the text: as §2, §1

[6] = target: T5, ASH1LPHD-BAH (Homo sapiens, UniProt Q9NR48); assay: Tryptophan fluorescence binding, ASH1LPHD-BAH; settings: 25 °C, pH 7.5, mean ± S.D., three independent experiments
T5 construct: ASH1LPHD-BAH (aa 2579- 2794 and 2579-2834); GST (N, cleaved yes); made in house; host or cells: E. coli BL21 or Rosetta2 (DE3) pLysS
From the text: as §2, §1

[7] = system: H3K4me3-NCP; format: binding; settings: EMSA; 0.025 µM nucleosome, increasing protein, pH 7.5, on ice 5 min
[8] = target: T1, ASH1LPHD; assay: NMR titration (1H,15N HSQC), WT ASH1LPHD; format: binding; settings: unlabeled ASH1LSET titrated into 15N-labeled ASH1LPHD
From the text: as §2, with “°C. After harvesting, the GST-tagged proteins were purified using glutathione agarose (Thermo Scientific) in 20 mM Tris pH 7.5, 150-500 mM NaCl, 5 mM MgCl2 and 2 mM DTT.” for “°C.”
(§3) NMR experiments were performed at 298 K on Varian 600 MHz and 900 MHZ spectrometers equipped with a cryogenic probe. Chemical shift perturbation experiments were carried out using 0.1–0.2 mM uniformly ^15N-labeled wild type or mutant proteins in 25 mM Tris pH 7.5 buffer, supplemented with 150 mM NaCl, 5 mM DTT and 5-7% D2O. ^1H,^15N heteronuclear single quantum coherence (HSQC) or transverse relaxation optimized spectroscopy (TROSY) spectra were recorded in the absence and presence of increasing concentrations of ligands. […]

[9] = system: ASH1LBD; assay: NMR titration (1H,15N HSQC), ASH1LBD; format: binding, Human; settings: unlabeled ASH1LSET titrated into 15N-labeled ASH1LBD
From the text: as §2, with “°C. After harvesting, the GST-tagged proteins were purified using glutathione agarose (Thermo Scientific) in 20 mM Tris pH 7.5, 150-500 mM NaCl, 5 mM MgCl2 and 2 mM DTT.” for “°C.”
as §3

[10] = WT, summary of tryptophan fluorescence and MST, di- and trimethylated peptides, read-out: binding affinity

Molecule: ASH1LSET-BD-PHD D2595K mutant: D2595K mutant of ASH1LSET-BD-PHD (aa 2074-2629)
- methyltransferase activity [1]: increase in the methyltransferase activity

- Kd [2, 10]: 1000 to 2000 nM
- Kd [3]: 5000 to 7000 nM
- Kd [4]: 5000 to 7000 nM
- Kd [5]: 1000 ± 300 nM
- Kd [6]: 1000 ± 400 nM
Molecule: C[C@H](N)C(=O)N[C@@H](CCCNC(=N)N)C(=O)N[C@H](C(=O)N[C@@H](CCCC[N+](C)(C)C)C(=O)N[C@@H](CCC(N)=O)C(=O)N[C@H](C(=O)N[C@@H](C)C(=O)N[C@@H](CCCNC(=N)N)C(=O)N[C@@H](CCCCN)C(=O)N[C@@H](CO)C(=O)N[C@H](C(=O)NCC(=O)O)[C@@H](C)O)[C@@H](C)O)[C@@H](C)O [H3K4me3]

- binding to H3K4me3-NCP [7]: incapable
Molecule: ASH1LPHD: Human ASH1L PHD finger (aa 2579-2629) (HEKDDDVIRCICGLYKDEGLMIQCDKCMVWQHCDCMGVNSDVEHYLCEQCD; left off: GST, end not stated, cleaved)

- interaction of ASH1LSET with ASH1LPHD (CSPs) [8]: does not interact with ASH1LPHD
Molecule: ASH1LSET: isolated unlabeled ASH1LSET domain
- interaction of ASH1LSET with ASH1LBD (CSPs) [9]: direct contact with ASH1LBD

- Kd [2, 10]: 1000 to 2000 nM
- Kd ([2]; tryptophan fluorescence, H3 aa 1-12, excitation 295 nm, emission 320-360 nm, 25 °C, 0.5–2 μM protein, 20–25 mM Tris pH 7.5, 150 mM NaCl, 3 mM DTT, mean ± S.D., three independent experiments, read-out: Kd): 1000 ± 400 nM
Molecule: C[C@H](N)C(=O)N[C@@H](CCCNC(=N)N)C(=O)N[C@H](C(=O)N[C@@H](CCCCN(C)C)C(=O)N[C@@H](CCC(N)=O)C(=O)N[C@H](C(=O)N[C@@H](C)C(=O)N[C@@H](CCCNC(=N)N)C(=O)N[C@@H](CCCCN)C(=O)N[C@@H](CO)C(=O)N[C@H](C(=O)NCC(=O)O)[C@@H](C)O)[C@@H](C)O)[C@@H](C)O [H3K4me2]
